Measurements as given in patent US4672058A, “N[[5-(trifluoromethyl)-6-methoxy-1-naphthalenyl]-thioxomethyl]-N -methylglycinamides” (American Home Products Corporation, priority 1985, dated 1987).

Key:
accumulation of dulcitol = test: Lowering of dulcitol accumulation in lens, sciatic nerve and diaphragm of galactosemic rats (in vivo); set-up: species or system rat (Sprague-Dawley, male); conditions: for % lowering dulcitol accumulation in vivo, D: diaphragm
Excerpt: Such experiments are exemplified hereinbelow after the listing of the following general comments pertaining to these experiments:
(a) Four or more groups of six male rats, 50-70 g, Sprague-Dawley strain, were used. The first group, the control group, was fed a mixture of laboratory chow (rodent Laboratory Chow, Purina) and glucose at 20% (w/w %) concentration. The untreated galactosemic group was fed a similar diet in which galactose is substituted for glucose. The third group was fed a diet prepared by mixing a given amount of the test compound with the galactose containing diet. The concentration of galactose in the diet of the treated groups was the same as that for the untreated galactosemic group.
(b) After four days, the animals were killed by decapitation. The eyeballs were removed and punctured with a razor blade; the freed lenses were rolled gently on filter paper and weighed. The sciatic nerves were dissected as completely as possible and weighed. Both tissues when frozen can be kept up to two weeks before being analyzed for dulcitol.
(c) The polyol determination was performed by a modification of the procedure of M. Kraml and L. Cosyns, Clin. Biochem., 2,373 (1969). Only two minor reagent changes were made: (a) The rinsing mixture was an aqueous 5% (w/v) trichloroacetic acid solution and (b) the stock solution was prepared by dissolving 25 mg of dulcitol in 100 ml of an aqueous trichloroacetic acid solution. [N.B.: For each experiment the average value found in the tissue from rats fed the glucose diet was subtracted from the individual values found in the corresponding tissue in galactose-fed rats to obtain the amount of polyol accumulated.] […] In the present case the procedure of Hayman and Kinoshita was modified in that the final chromatography step was omitted in the preparation of the enzyme from bovine lens.
The figures under L, N and D represent the percentage decrease of dulcitol accumulation in the tissues of the lens, sciatic nerve and diaphragm, respectively, for treated rats as compared to untreated rats.

aldose reductase = conditions: literature, in words; cited from earlier work

Which “% lowering dulcitol accumulation in vivo, D” value (accumulation of dulcitol; 55 mg/kg/day in diet, 4 days) does the source give for `COc1ccc2c(C(=S)N(C)CC(=O)N(C)C)cccc2c1C(F)(F)F` [Compound 3, 2-[[[6-Methoxy-5-(trifluoromethyl)-1-naphthalenyl]thioxomethyl]methylamino]-N,N-dimethylacetamide] here?
Its value is 85%.

With `O=C1NC(=O)[C@@]2(CCOc3ccc(F)cc32)N1` [sorbinil, (S)-6-Fluoro-2,3-dihydrospiro(4H-1-benzopyran-4,4'-imidazolidine)-2',5'-dione] as the compound, how does the “inhibition of aldose reductase, as reported” value (aldose reductase) read?
Its value is “aldose reductase inhibiting properties”.

Which “inhibition of aldose reductase, as reported” value (aldose reductase) does the source give for `O=C(O)CN1C(=O)c2cccc3cccc(c23)C1=O` [1,3-Dioxo-1H-benz[de]isoquinoline-2(3H)-acetic acid] here?
Its value is “effective inhibitor of aldose reductase”.

Which “% lowering dulcitol accumulation in vivo, D” value (accumulation of dulcitol; 161 mg/kg/day in diet, 4 days) does the source give for `COc1ccc2c(C(=S)N(C)CC(=O)N[C@H]3C(O)O[C@H](CO)[C@@H](O)[C@@H]3O)cccc2c1C(F)(F)F` (stereo partly drawn) [Compound 7, 2-Deoxy-2-[[[[[6-methoxy-5-(trifluoromethyl)-1-naphthalenyl]thioxomethyl]methylamino]acetyl]amino]-D-glucose] here?
The value was 37%.

Which results are given for `COc1ccc2c(C(=S)N(C)CC(N)=O)cccc2c1C(F)(F)F` [Compound 1, N-[[5-(trifluoromethyl)-6-methoxy-1-naphthalenyl]-thioxomethyl]-N-methylglycinamide]?
% lowering dulcitol accumulation in vivo, D (accumulation of dulcitol; 5 mg/kg/day in diet, 4 days): 66%; results compared with N-[[5-(trifluoromethyl)-6-methoxy-1-naphthalenyl]-thioxomethyl]-N-methylglycine (tolrestat) (accumulation of dulcitol; dose of 5 mg/kg/day, in words): comparable results

With `COc1ccc2c(C(=S)N(C)CC(=O)NC(N)=O)cccc2c1C(F)(F)F` [Compound 5, [[[5-(Trifluoromethyl)-6-methoxy-1-naphthalenyl]thioxomethyl](methylamino)acetyl]urea] as the compound, how does the “% lowering dulcitol accumulation in vivo, D” value (accumulation of dulcitol; 23 mg/kg/day in diet, 4 days) read?
Its value is 64%.

For `COC(=O)NC(=O)CN(C)C(=S)c1cccc2c(C(F)(F)F)c(OC)ccc12` [Compound 6, [[[5-(Trifluoromethyl)-6-methoxy-1-naphthalenyl]thioxomethyl](methylamino)acetyl]carbamic acid, Methyl Ester], which “% lowering dulcitol accumulation in vivo, D” value (accumulation of dulcitol; 8.4 mg/kg/day in diet, 4 days) is on record?
The value was 69%.

What about the “% lowering dulcitol accumulation in vivo, D” value (accumulation of dulcitol; 26 mg/kg/day in diet, 4 days) of the same compound?
Its value is 88%.

Which results are given for `COC(=N)NC(=O)CN(C)C(=S)c1cccc2c(C(F)(F)F)c(OC)ccc12` [Compound 4, N-[[[[5-(Trifluoromethyl)-6-methoxy-1-naphthalenyl]thioxomethyl]methylamino]acetyl]carbamimidic Acid, Methyl Ester]?
% lowering dulcitol accumulation in vivo, D (accumulation of dulcitol; 26 mg/kg/day in diet, 4 days): 76%; % lowering dulcitol accumulation in vivo, L (accumulation of dulcitol; lens, 26 mg/kg/day in diet, 4 days): 13%
